Experimental data taken from patent US20260374766A1, “METHODS FOR TREATING CANCER” (Antares Therapeutics, Inc., priority 2022, published 2026).
Read-outs that look alike come from different tables or passages of the source.

How the values were obtained:
[1] = tested on: H1299 p53 R273H; test: Cell Proliferation Assay (CellTiter-Glo, CTG), H1299 p53 R273H (NClH1299-inducible p53 R273H); assay type: cell-based; conditions: Homo sapiens, NCI-H1299, 120 h, 5 days
Method in brief: (§1)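 NClH1299 lines stably transduced with Tet-inducible p53 Y220C or R273H, plus NUGC3, were treated with compound for 5 days at 250-500 cells/well. IC50 derived from CellTiter-Glo luminescent signal after 10 min room-temperature incubation.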

[2] = tested on: NUGC3 p53 Y220C; test: Cell Proliferation Assay (CellTiter-Glo, CTG), NUGC3 p53 Y220C; assay type: cell-based; conditions: Homo sapiens, NUGC-3, 120 h, 5 days
Method in brief: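 Tet-One inducible p53 Y220C or R273H constructs were stably introduced into NCI-H1299 by lentiviral transduction; NUGC3 was used as is. Cells (250-500 per well) were exposed to compound for 5 days, then CellTiter-Glo was added for 10 min at room temperature and IC50 was calculated from luminescence.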

[3] = target: T1, p53 Y220C mutant protein (amino acid residues 94-293) (Homo sapiens, UniProt P04637, Y220C); test: Surface Plasmon Resonance (SPR) assay, Kd_kinetic; assay type: binding; conditions: SPR, p53 Y220C, read-out: SPR P53 Y220C KD kinetic
T1 construct: p53 Y220C mutant protein (amino acid residues 94-293)
T1 sequence (P04637 94-293, stated change not applied): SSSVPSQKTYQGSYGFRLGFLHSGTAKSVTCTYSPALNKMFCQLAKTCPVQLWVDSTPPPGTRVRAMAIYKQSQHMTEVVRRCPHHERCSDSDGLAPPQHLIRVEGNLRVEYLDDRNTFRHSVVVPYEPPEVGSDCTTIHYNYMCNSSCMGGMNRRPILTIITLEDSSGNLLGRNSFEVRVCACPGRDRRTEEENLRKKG
Method in brief: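 Biacore 8K SPR; 16 or 20 °C; Tris 50 mM pH 7.5, NaCl 100 mM, DTT 1 mM, Brij35 0.01%, Tween-20 0.05%, DMSO 1%. Kd_kinetic by 1:1 fit.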

[4] = tested on: H1299 p53 Y220C; test: Cell Proliferation Assay (CellTiter-Glo, CTG), H1299 p53 Y220C (NClH1299-inducible p53 Y220C); assay type: cell-based; conditions: Homo sapiens, NCI-H1299, 120 h, 5 days
Method in brief: as §1

[5] = target: p53 Y220C (Homo sapiens, UniProt P04637, Y220C); test: Luciferase Reporter Assay (Luc), p53 response element, NClH1299 cells with inducible p53 Y220C; assay type: cell-based; conditions: 6 hour; for AC50: read-out: Luc P53 Y220C AC50
Method in brief: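 Cells were seeded at 5,000 per well and induced with 0.5 ug/mL doxycycline for 24 hours, then exposed to compound for 6 hours. One-Glo reagent was added, plates shaken 5 minutes at room temperature, and luminescence read immediately.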

[6] = luciferase reporter, NClH1299 inducible p53 Y220C, 10 uM tool compound as positive control
[7] = luciferase reporter, NClH1299 inducible p53 Y220C
[8] = NClH1299-inducible p53 R273H cells, CellTiter-Glo
[9] = NClH1299-inducible p53 Y220C cells, CellTiter-Glo
[10] = AC50, luciferase reporter, NClH1299 inducible p53 Y220C
[11] = Emax, luciferase reporter, NClH1299 inducible p53 Y220C
[12] = NClH1299-inducible p53 R273H cells
[13] = NClH1299-inducible p53 Y220C cells
[14] = AC50, NClH1299 cells with inducible p53 Y220C
[15] = Emax, NClH1299 cells with inducible p53 Y220C, 10 uM tool compound as positive control

Row | SMILES | IC50 ([1]; CellTiter-Glo, H1299 p53 R273H) [nM] | IC50 ([2]; CellTiter-Glo, NUGC3 p53 Y220C) [nM] | Kd ([3]; kinetic KD) [nM] | IC50 ([4]; CellTiter-Glo, H1299 p53 Y220C) [nM] | Emax [5, 6] [%] | AC50 [5, 7] [nM] | IC50 [1, 8] [nM] | IC50 ([2]; NUGC3 cells, CellTiter-Glo) [nM] | Kd [3] [nM] | IC50 [4, 9] [nM] | AC50 [5, 10] [nM] | Emax [5, 11] [%] | IC50 [1, 12] [nM] | IC50 ([2]; NUGC3 cells) [nM] | IC50 [4, 13] [nM] | AC50 [5, 14] [nM] | Emax [5, 15] [%]
1 | COc1ccc(-c2ncc[nH]2)cc1NCC#Cc1nc2c(N[C@@H]3CCN(C)C[C@@H]3F)cccn2c1SC(F)(F)F [Example 220] | < 5000 | < 750 | < 10 | < 750 | 70 to 80 | < 750 | – | – | – | – | – | – | – | – | – | – | –
2 | COc1nc(P(C)(C)=O)ccc1NCC#Cc1cc2c(N[C@@H]3CCN(C)C[C@@H]3F)cccn2c1SC(F)(F)F [Example 390] | – | – | – | – | – | – | 5000 to 8000 | < 750 | < 10 | < 750 | < 750 | > 90 | – | – | – | – | –
3 | CN1CC[C@@H](Nc2cccn3c(SC(F)(F)F)c(C#CCNc4ccc(C(=O)NC[C@@H]5COCCO5)cc4)cc23)[C@@H](F)C1 [Example 441] | – | – | – | – | – | – | ≥ 10000 | < 750 | < 10 | < 750 | < 750 | > 90 | – | – | – | – | –
4 | CNC(=O)c1ccc(NCC#Cc2cc3c(N[C@@H]4CCN(C)C[C@@H]4F)nccn3c2SC(F)(F)F)c(F)c1 [Example 302] | – | – | – | – | – | – | ≥ 10000 | < 750 | < 10 | < 750 | < 750 | > 90 | – | – | – | – | –
5 | CNS(=O)(=O)c1ccc(OC)c(NCC#Cc2cc3c(N[C@@H]4CCN(C)C[C@@H]4F)nccn3c2SC(F)(F)F)c1 [Example 335] | – | – | – | – | – | – | ≥ 10000 | 1500 to 3000 | < 10 | 1500 to 3000 | 1500 to 3000 | 80 to 90 | – | – | – | – | –
6 | CNC(=O)c1ccc(NCC#Cc2nc3c(N[C@@H]4CN(C)C[C@@H]4F)nccn3c2SC(F)(F)F)c(OC)c1 [Example 323] | – | – | – | – | – | – | ≥ 10000 | 750 to 1500 | < 10 | 750 to 1500 | 750 to 1500 | > 90 | – | – | – | – | –
7 | C[C@H](NC(=O)c1ccc(NCC#Cc2cc3c(N[C@@H]4CCN(C)C[C@@H]4F)cccn3c2SC(F)(F)F)cc1)[C@@H](C)O [Example 396] | – | – | – | – | – | – | 8000 to 10000 | < 750 | < 10 | < 750 | < 750 | > 90 | – | – | – | – | –
8 | CNC(=O)c1ccc(NCC#Cc2cc3c(N[C@@H]4CCN(C)C[C@@H]4F)cccn3c2SC(F)(F)F)c(C(=O)NC)c1 [Example 493, 4-{[3-(8-{[(3S,4R)-3-fluoro-1-methylpiperidin-4-yl]amino}-3-[(trifluoromethyl)sulfanyl]indolizin-2-yl)prop-2-yn-1-yl]amino}-N1,N3-dimethylbenzene-1,3-dicarboxamide] | – | – | – | – | – | – | – | – | < 10 | – | – | – | ≥ 10000 | < 750 | < 750 | < 750 | > 90
9 | CNC(=O)c1ccc(OC)c(NCC#Cc2cc3c(N[C@@H]4CN(C)C[C@@H]4F)nccn3c2SC(F)F)n1 [Example 332] | – | – | – | – | – | – | ≥ 10000 | > 3000 | < 10 | 1500 to 3000 | 1500 to 3000 | 80 to 90 | – | – | – | – | –
10 | COc1cc(P(C)(C)=O)ccc1NCC#Cc1cn2c(N[C@@H]3CCN(C)C[C@@H]3F)cccc2c1SC(F)F [Example 415] | – | – | – | – | – | – | ≥ 10000 | 750 to 1500 | < 10 | 750 to 1500 | < 750 | 80 to 90 | – | – | – | – | –
11 | CNC(=O)c1ccc(OC)c(NCC#Cc2cc3c(N[C@@H]4CN(C)C[C@@H]4F)nccn3c2SC(F)F)c1 [Example 331] | – | – | – | – | – | – | ≥ 10000 | < 750 | < 10 | < 750 | < 750 | > 90 | – | – | – | – | –
12 | CN1CC[C@@H](Nc2cccn3c(SC(F)(F)F)c(C#CCNc4ccc(P(C)(C)=O)nn4)cc23)[C@@H](F)C1 [Example 429, 2-(3-{[6-(dimethylphosphoryl)pyridazin-3-yl]amino}prop-1-yn-1-yl)-N-[(3S,4R)-3-fluoro-1-methylpiperidin-4-yl]-3-[(trifluoromethyl)sulfanyl]indolizin-8-amine] | – | – | – | – | – | – | ≥ 10000 | < 750 | < 10 | < 750 | < 750 | 80 to 90 | – | – | – | – | –
13 | COc1cc(P(C)(C)=O)ccc1NCC#Cc1cc2c(N[C@@H]3CCNC[C@@H]3F)cccn2c1SC(F)(F)F [Example 379] | – | – | – | – | – | – | ≥ 10000 | < 750 | < 10 | < 750 | < 750 | > 90 | – | – | – | – | –
14 | CNC(=O)c1ccc(OC)c(NCC#Cc2cc3c(N[C@@H]4CN(C)C[C@@H]4F)cccn3c2SC(F)(F)F)c1 [Example 444] | – | – | – | – | – | – | ≥ 10000 | < 750 | < 10 | < 750 | < 750 | > 90 | – | – | – | – | –
15 | CNC(=O)c1cnc(C)c(NCC#Cc2nc3c(N[C@@H]4CCN(C)C[C@@H]4F)cccn3c2SC(F)(F)F)c1 [Example 274] | – | – | – | – | – | – | ≥ 10000 | < 750 | < 10 | < 750 | < 750 | > 90 | – | – | – | – | –
16 | C[C@@H](O)CNC(=O)c1ccc(NCC#Cc2cc3c(N[C@@H]4CCN(C)C[C@@H]4F)cccn3c2SC(F)(F)F)cc1 [Example 414] | – | – | – | – | – | – | ≥ 10000 | < 750 | < 10 | < 750 | < 750 | > 90 | – | – | – | – | –
17 | CNC(=O)c1ccc(OC)c(NCC#Cc2cc3c(N[C@@H]4CNC[C@@H]4F)nccn3c2SC(F)(F)F)c1 [Example 209] | ≥ 10000 | < 750 | < 10 | 750 to 1500 | > 90 | < 750 | – | – | – | – | – | – | – | – | – | – | –
18 | CNC(=O)c1ccc(OC)c(NCC#Cc2cc3c(N[C@@H]4CCN(C5COC5)C[C@@H]4F)cccn3c2SC(F)(F)F)c1 [Example 481, 3-{[3-(8-{[(3S,4R)-3-fluoro-1-(oxetan-3-yl)piperidin-4-yl]amino}-3-[(trifluoromethyl)sulfanyl]indolizin-2-yl)prop-2-yn-1-yl]amino}-4-methoxy-N-methylbenzamide] | – | – | – | – | – | – | – | – | < 10 | – | – | – | 5000 to 8000 | < 750 | < 750 | < 750 | > 90
19 | COc1cc(C(N)=O)ccc1NCC#Cc1cc2c(N[C@@H]3CCN(C)C[C@@H]3F)cccn2c1SC(F)(F)F [Example 464] | – | – | – | – | – | – | – | – | < 10 | – | – | – | ≥ 10000 | < 750 | < 750 | < 750 | > 90
20 | CNC(=O)c1cc(NCC#Cc2cc3c(N[C@H]4CCN(C)C[C@H]4F)cccn3c2SC(F)(F)F)c2nccn2c1 (stereo in doubt) [Example 503, 8-{[3-(8-{[(3R,4S)-3-fluoro-1-methylpiperidin-4-yl]amino}-3-[(trifluoromethyl)sulfanyl]indolizin-2-yl)prop-2-yn-1-yl]amino}-N-methylimidazo[1,2-a]pyridine-6-carboxamide] | – | – | – | – | – | – | – | – | < 10 | – | – | – | 5000 to 8000 | < 750 | < 750 | < 750 | > 90
21 | COc1cc(C(=O)N2CC(C)(O)C2)ccc1NCC#Cc1cc2c(N[C@@H]3CCN(C)C[C@@H]3F)cccn2c1SC(F)(F)F [Example 377] | – | – | – | – | – | – | 5000 to 8000 | < 750 | < 10 | < 750 | < 750 | > 90 | – | – | – | – | –
22 | COc1ccc(C(=O)N[C@H](C)[C@H](C)O)cc1NCC#Cc1cc2c(N[C@@H]3CCN(C)C[C@@H]3F)cccn2c1SC(F)(F)F [Example 468] | – | – | – | – | – | – | – | – | < 10 | – | – | – | 8000 to 10000 | < 750 | < 750 | < 750 | > 90
23 | CNC(=O)c1cnc(OC)c(NCC#Cc2nc3c(N[C@H]4C[C@@H]5CC[C@@H](N5)[C@H]4F)cccn3c2SC(F)(F)F)c1 [Example 267] | – | – | – | – | – | – | ≥ 10000 | < 750 | < 10 | < 750 | < 750 | 70 to 80 | – | – | – | – | –
24 | CN1CC[C@@H](Nc2cccn3c(SC(F)(F)F)c(C#CCNc4ccc(P(C)(C)=O)cc4)cc23)[C@@H](F)C1 [Example 385] | – | – | – | – | – | – | ≥ 10000 | < 750 | < 10 | < 750 | < 750 | 80 to 90 | – | – | – | – | –
